Measured values from patent publication US10196412B2, “Probe for imaging PARP-1 activity” (The Board of Trustees of the Leland Stanford Junior …, priority 2014, dated 2019).

Experiments:
PARP-1 [1] = biological target: T1, PARP-1 (Homo sapiens, UniProt P09874); assay: PET imaging of tracer retention in animal models of tumor radiation therapy; type: in vivo, mice; design: endogenous in cells; host or cells: HeLa xenografts and orthotopic MDA-MB-231 tumours in mice
Text: FIG. 8 illustrates a schematic showing animal studies performed with ^18F-PEG2-NAD (Substrate-based PARP-1 Activity Reporter: ^18F-SuPAR)
FIGS. 9A-9C illustrate the validation of ^18F-SuPAR in mice bearing HeLa tumor xenografts following radiation therapy.
FIGS. 10A-10C illustrate the validation of ^18F-SuPAR in mice bearing orthotopic MDA-MB-231 tumors following radiation therapy.
FIGS. 11A-11D illustrate the validation of PARP-1 as target of ^18F-SuPAR following inhibition by BMN673.
One advantageous tracer probe of the disclosure is an efficient analog of NAD that has been labelled by ^18F-radionuclide for PET imaging. It is contemplated, however, that other radionuclides detectable by PET imaging technology can be used in place of ^18F. Previously unknown relationships between NAD modification and PARP-1 substrate potential have been elucidated to synthesize the tracer, 6N-(triazo-PEG2-^18F)-NAD. This tracer was validated for PARP-1 activity in vivo in two animal models of tumor radiation therapy. […] Results were confirmed ex vivo by autoradiography and immunofluorescence analysis of tumor sections.

PARP-1 [2] = biological target: T1, PARP-1; assay: gel-shift assay for in vitro assessment of PARP-1 activity; type: biochemical
ARH3 = biological target: T2, ARH3 (Homo sapiens, UniProt Q9NX46); assay: ARH3-mediated degradation of PAR formed from probe (gel); type: biochemical; settings: FIG. 4D
T2 sequence (Q9NX46 1-363): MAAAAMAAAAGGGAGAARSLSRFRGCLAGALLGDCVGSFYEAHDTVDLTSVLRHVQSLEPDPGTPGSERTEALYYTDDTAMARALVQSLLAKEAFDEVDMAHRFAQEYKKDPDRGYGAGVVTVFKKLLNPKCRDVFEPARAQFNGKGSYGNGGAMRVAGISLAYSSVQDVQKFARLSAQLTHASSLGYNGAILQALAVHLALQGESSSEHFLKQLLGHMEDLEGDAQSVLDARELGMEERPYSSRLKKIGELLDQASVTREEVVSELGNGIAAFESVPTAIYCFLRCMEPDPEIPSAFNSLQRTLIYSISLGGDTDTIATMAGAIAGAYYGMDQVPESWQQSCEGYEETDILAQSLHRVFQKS

PARG = PARG (Homo sapiens, UniProt Q86W56); assay: PARG-mediated degradation of PAR formed from probe (gel); type: biochemical; settings: FIG. 4D
Text: FIG. 4A illustrates novel substrate-based PARP-1 probes assessed for in vitro PARP-1 activity and PARG-mediated degradation of PAR.

T1 sequence (P09874 whole entry): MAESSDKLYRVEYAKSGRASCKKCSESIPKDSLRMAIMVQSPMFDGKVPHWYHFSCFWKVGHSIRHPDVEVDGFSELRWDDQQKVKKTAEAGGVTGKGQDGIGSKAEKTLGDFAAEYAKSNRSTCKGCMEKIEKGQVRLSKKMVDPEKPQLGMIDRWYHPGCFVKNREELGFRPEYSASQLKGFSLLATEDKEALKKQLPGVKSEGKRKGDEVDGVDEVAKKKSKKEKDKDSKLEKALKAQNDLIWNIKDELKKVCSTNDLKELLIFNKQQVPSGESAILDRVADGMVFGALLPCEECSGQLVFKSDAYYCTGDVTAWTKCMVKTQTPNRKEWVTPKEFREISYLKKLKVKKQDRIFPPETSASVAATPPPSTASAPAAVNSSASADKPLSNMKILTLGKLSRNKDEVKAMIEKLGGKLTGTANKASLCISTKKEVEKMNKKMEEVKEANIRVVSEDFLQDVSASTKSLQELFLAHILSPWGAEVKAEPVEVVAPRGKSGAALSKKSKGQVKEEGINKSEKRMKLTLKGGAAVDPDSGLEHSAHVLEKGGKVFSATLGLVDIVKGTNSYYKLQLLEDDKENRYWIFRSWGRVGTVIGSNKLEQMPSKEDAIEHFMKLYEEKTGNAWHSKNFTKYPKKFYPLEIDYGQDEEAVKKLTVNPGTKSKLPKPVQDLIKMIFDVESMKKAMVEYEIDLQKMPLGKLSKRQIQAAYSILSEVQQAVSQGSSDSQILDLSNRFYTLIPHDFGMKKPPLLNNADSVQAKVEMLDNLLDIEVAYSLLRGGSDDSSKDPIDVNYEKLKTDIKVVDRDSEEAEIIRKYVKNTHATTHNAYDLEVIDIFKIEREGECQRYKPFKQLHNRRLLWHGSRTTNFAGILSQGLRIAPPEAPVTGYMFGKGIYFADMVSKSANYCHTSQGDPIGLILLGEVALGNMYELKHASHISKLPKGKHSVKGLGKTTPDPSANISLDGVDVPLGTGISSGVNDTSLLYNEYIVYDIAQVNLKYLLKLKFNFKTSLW
Sequence of PARG (Q86W56 whole entry, species assumed): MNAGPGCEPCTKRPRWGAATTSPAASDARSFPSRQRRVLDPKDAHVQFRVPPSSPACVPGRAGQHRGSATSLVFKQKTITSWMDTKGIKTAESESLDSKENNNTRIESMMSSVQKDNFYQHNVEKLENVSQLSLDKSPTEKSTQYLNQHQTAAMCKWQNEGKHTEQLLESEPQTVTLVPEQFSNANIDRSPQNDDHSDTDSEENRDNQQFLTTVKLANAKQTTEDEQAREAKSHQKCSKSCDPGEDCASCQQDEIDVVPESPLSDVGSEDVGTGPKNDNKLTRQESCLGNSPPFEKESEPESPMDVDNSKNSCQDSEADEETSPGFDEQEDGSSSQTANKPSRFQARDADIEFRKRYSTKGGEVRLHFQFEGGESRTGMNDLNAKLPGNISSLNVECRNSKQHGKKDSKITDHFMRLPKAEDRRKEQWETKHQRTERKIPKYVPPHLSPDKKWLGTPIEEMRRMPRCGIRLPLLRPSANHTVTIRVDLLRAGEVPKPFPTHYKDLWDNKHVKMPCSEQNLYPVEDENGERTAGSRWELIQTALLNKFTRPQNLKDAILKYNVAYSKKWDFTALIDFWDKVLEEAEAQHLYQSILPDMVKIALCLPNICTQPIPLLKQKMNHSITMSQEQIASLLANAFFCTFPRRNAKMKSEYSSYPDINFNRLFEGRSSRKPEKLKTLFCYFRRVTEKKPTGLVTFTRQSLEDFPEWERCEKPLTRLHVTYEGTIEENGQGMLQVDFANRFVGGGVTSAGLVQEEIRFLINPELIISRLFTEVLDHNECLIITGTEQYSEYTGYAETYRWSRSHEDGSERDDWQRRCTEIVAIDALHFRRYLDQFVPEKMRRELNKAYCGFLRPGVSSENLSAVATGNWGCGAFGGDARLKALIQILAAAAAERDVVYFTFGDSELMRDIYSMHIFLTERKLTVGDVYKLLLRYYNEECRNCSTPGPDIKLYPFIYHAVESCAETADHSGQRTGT

NC(=O)c1ccc[n+](C2OC(COP(=O)(O)OP(=O)(O)OCC3OC(n4cnc5c(NCc6cn(COCC[18F])nn6)ncnc54)C(O)C3O)C(O)C2O)c1 (stereo not shown) [6N-(triazo-PEG2-^18F)-NAD]
tracer retention with increasing doses of radiation (PARP-1 [1]; 0, 5, 10 Gy, two animal models of tumor radiation therapy): dose-dependence of tracer retention was observed
probe target verification using a highly potent PARP-1 inhibitor (PARP-1 [1]; in vivo, confirmed ex vivo by autoradiography and immunofluorescence): verified as PARP-1
time-dependence of maximal tracer uptake (PARP-1 [1]; two animal models of tumor radiation therapy): tumor-type specific

C#CCNc1ncnc2c1ncn2[C@@H]1O[C@H](COP(=O)(O)OP(=O)(O)OC[C@H]2O[C@@H]([n+]3cccc(C(N)=O)c3)[C@H](O)[C@@H]2O)[C@@H](O)[C@H]1O [LCD11, Nicotinamide 6-N-propargyladenine dinucleotide]
incorporation into high molecular weight PAR (PARP-1 [2]; low percentage ratios of alkyne probe to NAD, FIG. 6B): incorporation into high molecular weight PAR occurs

NC(=O)c1ccc[n+]([C@@H]2O[C@H](COP(=O)(O)OP(=O)(O)OC[C@H]3O[C@@H](n4cnc5c(NCc6cn(CCOCCOCCF)nn6)ncnc54)[C@H](O)[C@@H]3O)[C@@H](O)[C@H]2O)c1 [LCD67]
degradation by ARH3 (ARH3): resistance to degradation
degradation by PARG (PARG): resistance to degradation

Nc1cccc2c(=O)[nH][nH]c(=O)c12 [luminol, reference compound]
inhibition of PARP-1 (PARP-1 [2]; gel, FIG. 2A): inhibits PARP-1
